In PubChem BioAssay AID488950 (Broad Institute, 2010):
Where “and” joins values, the source holds several entries; their conditions need not be identical. Equal entries are not always repeated. Inconclusive results are not listed. Calls of active or inactive are those of the source.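 How the source made its calls: active means fitted half-maximal dose for growth inhibition no higher than ten times the top tested dose; inconclusive means flat curve with 30 to 70% inhibition, or poor fit; inactive means the rest.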

Legend:
[1] = fluconazole-resistant Candida strain growth inhibitors – CaCi-8 strain, dry powder, set 4, dose response (AID 488950); conditions: C. albicans CaCi-8 + fluconazole, Alamar Blue growth, 48 h; at 26 µM (top of the series)
[2] = system: C. albicans CaCi-8 + fluconazole, Alamar Blue growth, 48 h; assay: as above

| Compound | activity change, negative = inhibition [1] | AC50 [2] |
| --- | --- | --- |
| Cc1cc(N2CCN(C(=O)c3ccc(Cl)cc3)CC2)c2ccccc2n1 | 6.54% (inactive) |  |
| Clc1ccc2c(N3CCNCC3)ccnc2c1 | 7.46% (inactive) |  |
| COc1cccc2c(N3CCN(C(=O)c4ccc(Cl)cc4)CC3)cc(C)nc12 | -22.9% (inactive) |  |
| O=C(c1ccc(Cl)cc1)N1CCNCC1 | 4.63% (inactive) |  |
| COc1cccnc1N1CCN(C(=O)c2ccc(Cl)cc2)CC1 | -25% (inactive) |  |
| O=C(c1ccc(Cl)cc1)N1CCN(c2ccnc3cc(Cl)ccc23)CC1 |  | 0.179 µM and 0.6 µM |
| CC(C)C(=O)N1CCN(c2ccnc3cc(Cl)ccc23)CC1 | -25.6% (inactive) |  |
| O=S(=O)(c1ccc(Cl)cc1)N1CCN(c2ccnc3cc(Cl)ccc23)CC1 | -2.18% (inactive) |  |
| O=C(c1ccc(Cl)cc1)N1CCN(c2ccccn2)CC1 |  | 9.14 µM and 13.8 µM and 19.9 µM |
| O=C(c1ccc(Cl)cc1)N1CCN(c2cc(C(F)(F)F)nc3ccccc23)CC1 | -54.5% (inactive) |  |
| O=C(c1ccc(Cl)cc1)N1CCN(c2ccncc2)CC1 | -2.65% (inactive) |  |
